Measured values taken from ChEMBL document CHEMBL3045802, “Synthesis and in vitro antitumor activity of new quinoline, pyrimido[4,5-b]quinoline, [1,2,3]triazino[4,5-b]quinoline, and [1,2,4]triazolo[2,3:3,4]pyrimido[6,5-b]quinoline analogs” (2013).

Columns and labels:
Assay type in all cases: functional
[1] = tested on: SK-MEL-2; test: Cytotoxicity against Homo sapiens (human) SK-MEL-2 cells assessed as growth inhibition at 10 uM after 48 hr by coulter counter analysis; details: SK-MEL-2, 48 h, read-out: GI
[2] = tested on: MDA-MB-435; test: Cytotoxicity against Homo sapiens (human) MDA-MB-435 cells assessed as growth inhibition at 10 uM after 48 hr by coulter counter analysis; details: MDA-MB-435, 48 h, read-out: GI
[3] = tested on: M14; test: Cytotoxicity against Homo sapiens (human) M14 cells assessed as growth inhibition at 10 uM after 48 hr by coulter counter analysis; details: M14, 48 h, read-out: GI
[4] = tested on: Malme-3M; test: Cytotoxicity against Homo sapiens (human) MALME-3M cells assessed as growth inhibition at 10 uM after 48 hr by coulter counter analysis; details: read-out: GI
[5] = tested on: SNB-19; test: Cytotoxicity against Homo sapiens (human) SNB19 cells assessed as growth inhibition at 10 uM after 48 hr by coulter counter analysis; details: SNB-19, 48 h, read-out: GI
[6] = tested on: SF-539; test: Cytotoxicity against Homo sapiens (human) SF539 cells assessed as growth inhibition at 10 uM after 48 hr by coulter counter analysis; details: SF-539, 48 h, read-out: GI
[7] = tested on: OVCAR-4; test: Cytotoxicity against Homo sapiens (human) OVCAR4 cells assessed as growth inhibition at 10 uM after 48 hr by coulter counter analysis; details: OVCAR-4, 48 h, read-out: GI
[8] = tested on: IGROV-1; test: Cytotoxicity against Homo sapiens (human) IGROV1 cells assessed as growth inhibition at 10 uM after 48 hr by coulter counter analysis; details: IGROV-1, 48 h, read-out: GI
[9] = tested on: T47D; test: Cytotoxicity against Homo sapiens (human) T47D cells assessed as growth inhibition at 10 uM after 48 hr by coulter counter analysis; details: read-out: GI
[10] = tested on: Hs-578T; test: Cytotoxicity against Homo sapiens (human) Hs578T cells assessed as growth inhibition at 10 uM after 48 hr by coulter counter analysis; details: read-out: GI
[11] = tested on: PC-3; test: Cytotoxicity against Homo sapiens (human) PC3 cells assessed as growth inhibition at 10 uM after 48 hr by coulter counter analysis; details: PC-3, 48 h, read-out: GI
[12] = tested on: DU-145; test: Cytotoxicity against Homo sapiens (human) DU145 cells assessed as growth inhibition at 10 uM after 48 hr by coulter counter analysis; details: DU-145, 48 h, read-out: GI
[13] = tested on: RXF 393; test: Cytotoxicity against Homo sapiens (human) RXF393 cells assessed as growth inhibition at 10 uM after 48 hr by coulter counter analysis; details: RXF 393, 48 h, read-out: GI
[14] = tested on: OVCAR-8; test: Cytotoxicity against Homo sapiens (human) OVCAR8 cells assessed as growth inhibition at 10 uM after 48 hr by coulter counter analysis; details: OVCAR-8, 48 h, read-out: GI
[15] = tested on: HL-60(TB); test: Cytotoxicity against Homo sapiens (human) HL-60(TB) cells assessed as growth inhibition at 10 uM after 48 hr by coulter counter analysis; details: HL-60, 48 h, read-out: GI
[16] = tested on: HCT-15; test: Cytotoxicity against Homo sapiens (human) HCT15 cells assessed as growth inhibition at 10 uM after 48 hr by coulter counter analysis; details: HCT-15, 48 h, read-out: GI
[17] = tested on: HCC 2998; test: Cytotoxicity against Homo sapiens (human) HCC2998 cells assessed as growth inhibition at 10 uM after 48 hr by coulter counter analysis; details: HCC 2998, 48 h, read-out: GI
[18] = tested on: NCI-H23; test: Cytotoxicity against Homo sapiens (human) NCI-H23 cells assessed as growth inhibition at 10 uM after 48 hr by coulter counter analysis; details: NCI-H23, 48 h, read-out: GI
[19] = tested on: NCI-H226; test: Cytotoxicity against Homo sapiens (human) NCI-H226 cells assessed as growth inhibition at 10 uM after 48 hr by coulter counter analysis; details: NCI-H226, 48 h, read-out: GI
[20] = tested on: HOP-92; test: Cytotoxicity against Homo sapiens (human) HOP92 cells assessed as growth inhibition at 10 uM after 48 hr by coulter counter analysis; details: HOP-92, 48 h, read-out: GI
[21] = tested on: HOP-62; test: Cytotoxicity against Homo sapiens (human) HOP62 cells assessed as growth inhibition at 10 uM after 48 hr by coulter counter analysis; details: HOP-62, 48 h, read-out: GI
[22] = tested on: A549; test: Cytotoxicity against Homo sapiens (human) A549 cells assessed as growth inhibition at 10 uM after 48 hr by coulter counter analysis; details: A549, 48 h, read-out: GI
[23] = tested on: RPMI-8226; test: Cytotoxicity against Homo sapiens (human) RPMI8226 cells assessed as growth inhibition at 10 uM after 48 hr by coulter counter analysis; details: RPMI-8226, 48 h, read-out: GI
[24] = tested on: UACC-62; test: Cytotoxicity against Homo sapiens (human) UACC62 cells assessed as growth inhibition at 10 uM after 48 hr by coulter counter analysis; details: UACC-62, 48 h, read-out: GI

SMILES	inhibition of growth at 10 µM [1] [%]	inhibition of growth at 10 µM [2] [%]	inhibition of growth at 10 µM [3] [%]	inhibition of growth at 10 µM [4] [%]	inhibition of growth at 10 µM [5] [%]	inhibition of growth at 10 µM [6] [%]	inhibition of growth at 10 µM [7] [%]	inhibition of growth at 10 µM [8] [%]	inhibition of growth at 10 µM [9] [%]	inhibition of growth at 10 µM [10] [%]	inhibition of growth at 10 µM [11] [%]	inhibition of growth at 10 µM [12] [%]	inhibition of growth at 10 µM [13] [%]	inhibition of growth at 10 µM [14] [%]	inhibition of growth at 10 µM [15] [%]	inhibition of growth at 10 µM [16] [%]	inhibition of growth at 10 µM [17] [%]	inhibition of growth at 10 µM [18] [%]	inhibition of growth at 10 µM [19] [%]	inhibition of growth at 10 µM [20] [%]	further results
O=c1[nH]nnc2c1C(c1ccc(Cl)cc1)C1=C(CCCC1)N2 (configuration not stated)	< 10	< 10	< 10	< 10	< 10	< 10	< 10	< 10	13.3	< 10	10.2	< 10	< 10	< 10	< 10	< 10	< 10	10.4	10.3	< 10	inhibition of growth at 10 µM [21]: < 10%; inhibition of growth at 10 µM [22]: < 10%; inhibition of growth at 10 µM [23]: < 10%
N#CCc1nc2c(c(=O)[nH]1)C(c1ccc(Cl)cc1)C1=C(CCCC1)N2 (configuration not stated)	10	< 10	< 10	< 10	< 10	< 10	< 10	< 10	14.1	< 10	< 10	< 10	< 10	< 10	< 10	< 10	< 10	12.1	< 10	11.2	inhibition of growth at 10 µM [21]: 12.5%; inhibition of growth at 10 µM [22]: < 10%; inhibition of growth at 10 µM [23]: < 10%
CN(C)c1ccc(-c2nc3c(c(=O)[nH]2)C(c2ccc(Cl)cc2)C2=C(CCCC2)N3)cc1 (configuration not stated)	10	< 10	< 10	< 10	< 10	< 10	< 10	< 10	17.6	< 10	< 10	< 10	< 10	< 10	< 10	< 10	< 10	12.4	< 10	35.9	inhibition of growth at 10 µM [21]: 12.8%; inhibition of growth at 10 µM [22]: < 10%; inhibition of growth at 10 µM [23]: < 10%
COc1ccc(-c2nc3c(c(=O)[nH]2)C(c2ccc(Cl)cc2)C2=C(CCCC2)N3)cc1OC (configuration not stated)	< 10	< 10	< 10	< 10	< 10	< 10	< 10	< 10	< 10	< 10	12.5	< 10	< 10	< 10	< 10	< 10	< 10	< 10	11	< 10	inhibition of growth at 10 µM [21]: 10.2%; inhibition of growth at 10 µM [22]: < 10%; inhibition of growth at 10 µM [23]: < 10%
COc1ccc(C2C3=C(CCCC3)Nc3nc(-c4ccc(N(C)C)cc4)[nH]c(=O)c32)cc1OC (configuration not stated)	< 10	< 10	< 10	< 10	< 10	< 10	< 10	< 10	14.9	< 10	11.4	< 10	< 10	< 10	< 10	< 10	< 10	< 10	13.6	< 10	inhibition of growth at 10 µM [21]: < 10%; inhibition of growth at 10 µM [22]: < 10%; inhibition of growth at 10 µM [23]: < 10%
Oc1ccc(-c2nc3c4c(ncn3n2)NC2=C(CCCC2)C4c2ccc(Cl)cc2)cc1 (configuration not stated)	< 10	< 10	< 10	13	< 10	< 10	< 10	< 10	15.8	14.1	10.4	< 10	< 10	< 10	13.5	< 10	< 10	12.9	< 10	42.1	inhibition of growth at 10 µM [24]: 17.4%; inhibition of growth at 10 µM [21]: 16.6%; inhibition of growth at 10 µM [22]: < 10%; inhibition of growth at 10 µM [23]: 13.2%
COc1ccc(C2C3=C(CCCC3)Nc3ncn4nc(-c5ccccc5)nc4c32)cc1OC (configuration not stated)	< 10	< 10	< 10	< 10	< 10	< 10	< 10	< 10	26.2	< 10	19.8	< 10	19.9	14.7	< 10	13.1	< 10	10.7	19.6	36.8	inhibition of growth at 10 µM [24]: < 10%; inhibition of growth at 10 µM [21]: < 10%; inhibition of growth at 10 µM [22]: 12.3%; inhibition of growth at 10 µM [23]: 10.5%
COc1ccc(C2C3=C(CCCC3)Nc3ncn4nc(-c5ccc(O)cc5)nc4c32)cc1OC (configuration not stated)	< 10	< 10	< 10	< 10	< 10	< 10	< 10	< 10	18.8	< 10	< 10	< 10	< 10	< 10	< 10	< 10	< 10	< 10	15.3	12.2	inhibition of growth at 10 µM [24]: < 10%; inhibition of growth at 10 µM [21]: < 10%; inhibition of growth at 10 µM [22]: < 10%; inhibition of growth at 10 µM [23]: < 10%
